Data taken from patent US10138275B2, “Crystalline powder of cyclic peptide compound, preparation method for same, and uses thereof” (SHANGHAI TECHWELL BIOPHARMACEUTICAL CO., LTD, priority 2014, dated 2018).
Starred links: 1 amine or outer side, 2 acyl side, 3 side chain; linkers in the order of their positions; H or OH if unused. Positions of bridges follow the written chain, without caps; N, C: chain ends. Non-standard residues stand in square brackets, D forms with d. Residues, ends and D or L forms follow the SMILES beside them. *: point of attachment. hTyr(3S-OH,4S-OH,3'-OSO3H) = N[C@H](C(=O)O)[C@H](O)[C@@H](O)c1ccc(O)c(OS(=O)(=O)O)c1; Orn(4R-OH,5R-OH) = O=C([C@H](C[C@@H](O)[C@@H](O)N[*:3])N[*:1])[*:2]; Pro(3S-OH,4S-Me) = C[C@H]1CN[C@H](C(=O)O)[C@H]1O; X1 = CCCCCOc1ccc(-c2cc(-c3ccc(C(=O)*)cc3)no2)cc1; Gln(3R-OH) = NC(=O)C[C@@H](O)[C@H](N)C(=O)O; Hyp = O=C(O)[C@@H]1C[C@@H](O)CN1

assay: Ratio of dry weight to wet weight (Dry/Wet) of filtered solids; type: physicochemical; details: wet solids weighed after filtration, before drying
Source text: As used herein, the term “Dry/Wet” and “ratio of dry weight to wet weight” can be used interchangeably, both of which refer to the ratio of the weight of a compound without solvent(s) to the weight of the compound with solvent(s). In the present invention, wet weight of crystals is obtained by filtering the crystallized solids until no noticeable droplet outflows and weighing the solids.

**Q.** Which “ratio of dry weight to wet weight (Dry/Wet)” value (“ratio … (Dry/Wet)” below) does the source give for `CCCCCOc1ccc(-c2cc(-c3ccc(C(=O)N[C@H]4C[C@@H](O)[C@@H](O)NC(=O)[C@@H]5[C@@H](O)[C@@H](C)CN5C(=O)[C@H]([C@H](O)CC(N)=O)NC(=O)[C@H]([C@H](O)[C@@H](O)c5ccc(O)c(OS(=O)(=O)[O-])c5)NC(=O)[C@@H]5C[C@@H](O)CN5C(=O)[C@H]([C@@H](C)O)NC4=O)cc3)no2)cc1.[Na+]` [Comparative Example 14] (X1-[Orn(4R-OH,5R-OH)]T[Hyp][hTyr(3S-OH,4S-OH,3'-OSO3H)][Gln(3R-OH)][Pro(3S-OH,4S-Me)]; lactam 1-C) here?
**A.** Its value is 0.19.

**Q.** With `CCCCCOc1ccc(-c2cc(-c3ccc(C(=O)N[C@H]4C[C@@H](O)[C@@H](O)NC(=O)[C@@H]5[C@@H](O)[C@@H](C)CN5C(=O)[C@H]([C@H](O)CC(N)=O)NC(=O)[C@H]([C@H](O)[C@@H](O)c5ccc(O)c(OS(=O)(=O)[O-])c5)NC(=O)[C@@H]5C[C@@H](O)CN5C(=O)[C@H]([C@@H](C)O)NC4=O)cc3)no2)cc1.[Na+]` [Comparative Example 4] (X1-[Orn(4R-OH,5R-OH)]T[Hyp][hTyr(3S-OH,4S-OH,3'-OSO3H)][Gln(3R-OH)][Pro(3S-OH,4S-Me)]; lactam 1-C) as the molecule, how does the “ratio … (Dry/Wet)” value read?
**A.** Its value is 0.19.

**Q.** With `CCCCCOc1ccc(-c2cc(-c3ccc(C(=O)N[C@H]4C[C@@H](O)[C@@H](O)NC(=O)[C@@H]5[C@@H](O)[C@@H](C)CN5C(=O)[C@H]([C@H](O)CC(N)=O)NC(=O)[C@H]([C@H](O)[C@@H](O)c5ccc(O)c(OS(=O)(=O)[O-])c5)NC(=O)[C@@H]5C[C@@H](O)CN5C(=O)[C@H]([C@@H](C)O)NC4=O)cc3)no2)cc1.[Na+]` [Comparative Example 13] (X1-[Orn(4R-OH,5R-OH)]T[Hyp][hTyr(3S-OH,4S-OH,3'-OSO3H)][Gln(3R-OH)][Pro(3S-OH,4S-Me)]; lactam 1-C) as the molecule, how does the “ratio … (Dry/Wet)” value read?
**A.** The value was 0.2.

**Q.** For `CCCCCOc1ccc(-c2cc(-c3ccc(C(=O)N[C@H]4C[C@@H](O)[C@@H](O)NC(=O)[C@@H]5[C@@H](O)[C@@H](C)CN5C(=O)[C@H]([C@H](O)CC(N)=O)NC(=O)[C@H]([C@H](O)[C@@H](O)c5ccc(O)c(OS(=O)(=O)[O-])c5)NC(=O)[C@@H]5C[C@@H](O)CN5C(=O)[C@H]([C@@H](C)O)NC4=O)cc3)no2)cc1.[Na+]` [Comparative Example 7] (X1-[Orn(4R-OH,5R-OH)]T[Hyp][hTyr(3S-OH,4S-OH,3'-OSO3H)][Gln(3R-OH)][Pro(3S-OH,4S-Me)]; lactam 1-C), which “ratio … (Dry/Wet)” value is on record?
**A.** The value was 0.2.

**Q.** With `CCCCCOc1ccc(-c2cc(-c3ccc(C(=O)N[C@H]4C[C@@H](O)[C@@H](O)NC(=O)[C@@H]5[C@@H](O)[C@@H](C)CN5C(=O)[C@H]([C@H](O)CC(N)=O)NC(=O)[C@H]([C@H](O)[C@@H](O)c5ccc(O)c(OS(=O)(=O)[O-])c5)NC(=O)[C@@H]5C[C@@H](O)CN5C(=O)[C@H]([C@@H](C)O)NC4=O)cc3)no2)cc1.[Na+]` [Comparative Example 12] (X1-[Orn(4R-OH,5R-OH)]T[Hyp][hTyr(3S-OH,4S-OH,3'-OSO3H)][Gln(3R-OH)][Pro(3S-OH,4S-Me)]; lactam 1-C) as the molecule, how does the “ratio … (Dry/Wet)” value read?
**A.** Its value is 0.18.

**Q.** With `CCCCCOc1ccc(-c2cc(-c3ccc(C(=O)N[C@H]4C[C@@H](O)[C@@H](O)NC(=O)[C@@H]5[C@@H](O)[C@@H](C)CN5C(=O)[C@H]([C@H](O)CC(N)=O)NC(=O)[C@H]([C@H](O)[C@@H](O)c5ccc(O)c(OS(=O)(=O)[O-])c5)NC(=O)[C@@H]5C[C@@H](O)CN5C(=O)[C@H]([C@@H](C)O)NC4=O)cc3)no2)cc1.[Na+]` [Comparative Example 10] (X1-[Orn(4R-OH,5R-OH)]T[Hyp][hTyr(3S-OH,4S-OH,3'-OSO3H)][Gln(3R-OH)][Pro(3S-OH,4S-Me)]; lactam 1-C) as the molecule, how does the “ratio … (Dry/Wet)” value read?
**A.** Its value is 0.23.

**Q.** For `CCCCCOc1ccc(-c2cc(-c3ccc(C(=O)N[C@H]4C[C@@H](O)[C@@H](O)NC(=O)[C@@H]5[C@@H](O)[C@@H](C)CN5C(=O)[C@H]([C@H](O)CC(N)=O)NC(=O)[C@H]([C@H](O)[C@@H](O)c5ccc(O)c(OS(=O)(=O)[O-])c5)NC(=O)[C@@H]5C[C@@H](O)CN5C(=O)[C@H]([C@@H](C)O)NC4=O)cc3)no2)cc1.[Na+]` [Comparative Example 5] (X1-[Orn(4R-OH,5R-OH)]T[Hyp][hTyr(3S-OH,4S-OH,3'-OSO3H)][Gln(3R-OH)][Pro(3S-OH,4S-Me)]; lactam 1-C), which “ratio … (Dry/Wet)” value is on record?
**A.** The value was 0.18.

**Q.** For `CCCCCOc1ccc(-c2cc(-c3ccc(C(=O)N[C@H]4C[C@@H](O)[C@@H](O)NC(=O)[C@@H]5[C@@H](O)[C@@H](C)CN5C(=O)[C@H]([C@H](O)CC(N)=O)NC(=O)[C@H]([C@H](O)[C@@H](O)c5ccc(O)c(OS(=O)(=O)[O-])c5)NC(=O)[C@@H]5C[C@@H](O)CN5C(=O)[C@H]([C@@H](C)O)NC4=O)cc3)no2)cc1.[Na+]` [Comparative Example 8] (X1-[Orn(4R-OH,5R-OH)]T[Hyp][hTyr(3S-OH,4S-OH,3'-OSO3H)][Gln(3R-OH)][Pro(3S-OH,4S-Me)]; lactam 1-C), which “ratio … (Dry/Wet)” value is on record?
**A.** Its value is 0.15.

**Q.** For `CCCCCOc1ccc(-c2cc(-c3ccc(C(=O)N[C@H]4C[C@@H](O)[C@@H](O)NC(=O)[C@@H]5[C@@H](O)[C@@H](C)CN5C(=O)[C@H]([C@H](O)CC(N)=O)NC(=O)[C@H]([C@H](O)[C@@H](O)c5ccc(O)c(OS(=O)(=O)[O-])c5)NC(=O)[C@@H]5C[C@@H](O)CN5C(=O)[C@H]([C@@H](C)O)NC4=O)cc3)no2)cc1.[Na+]` [Comparative Example 15] (X1-[Orn(4R-OH,5R-OH)]T[Hyp][hTyr(3S-OH,4S-OH,3'-OSO3H)][Gln(3R-OH)][Pro(3S-OH,4S-Me)]; lactam 1-C), which “ratio … (Dry/Wet)” value is on record?
**A.** The value was 0.15.

**Q.** Which “ratio … (Dry/Wet)” value does the source give for `CCCCCOc1ccc(-c2cc(-c3ccc(C(=O)N[C@H]4C[C@@H](O)[C@@H](O)NC(=O)[C@@H]5[C@@H](O)[C@@H](C)CN5C(=O)[C@H]([C@H](O)CC(N)=O)NC(=O)[C@H]([C@H](O)[C@@H](O)c5ccc(O)c(OS(=O)(=O)[O-])c5)NC(=O)[C@@H]5C[C@@H](O)CN5C(=O)[C@H]([C@@H](C)O)NC4=O)cc3)no2)cc1.[Na+]` [Comparative Example 11] (X1-[Orn(4R-OH,5R-OH)]T[Hyp][hTyr(3S-OH,4S-OH,3'-OSO3H)][Gln(3R-OH)][Pro(3S-OH,4S-Me)]; lactam 1-C) here?
**A.** The value was 0.11.
